Results taken from the NIST ThermoML archive (doi:10.1021/je049610v).

Experiments:
[1] = xn = mol fraction of the nth substance listed; settings: 101 kPa, Liquid
[2] = refractive index (Na D-line) (dimensionless); xn = mol fraction of the nth substance listed; settings: 101 kPa, Liquid

COc1ccccc1 [anisole] + C[S+](C)[O-]
Settings	mass density, 298.15 K [kg/m3]	mass density, 303.15 K [kg/m3]	mass density, 308.15 K [kg/m3]	refractive index, 298.15 K	refractive index, 303.15 K	refractive index, 308.15 K	speed of sound, 298.15 K [m/s]	viscosity, 298.15 K [mPa·s]	viscosity, 303.15 K [mPa·s]	viscosity, 308.15 K [mPa·s]
[1], x1 = 0.0938	1081.5	1077	1072.3	–	–	–	1487	1.836	1.683	1.529
[1], x1 = 0.2016	1066.7	1062.1	1057.6	–	–	–	1477	1.691	1.549	1.407
[1], x1 = 0.3025	1054.4	1049.9	1045.3	–	–	–	1468	1.565	1.438	1.31
[1], x1 = 0.3987	1043.6	1039.2	1034.7	–	–	–	1462	1.466	1.347	1.228
[1], x1 = 0.5074	1032.5	1027.9	1023.6	–	–	–	1454	1.369	1.268	1.166
[1], x1 = 0.594	1024.1	1019.7	1015.1	–	–	–	1445	1.318	1.219	1.119
[1], x1 = 0.6956	1014.7	1010.3	1005.7	–	–	–	1437	1.249	1.152	1.054
[1], x1 = 0.7988	1005.5	1001.4	996.7	–	–	–	1428	1.157	1.073	0.989
[1], x1 = 0.8933	997.4	992.8	988.5	–	–	–	1421	1.077	1.004	0.931
[1], x1 = 1	988.9	984.1	979.4	–	–	–	1410	0.992	0.919	0.853
[2], x1 = 0.0938	–	–	–	1.4817	1.4772	1.4727	–	–	–	–
[2], x1 = 0.2016	–	–	–	1.4878	1.4853	1.4828	–	–	–	–
[2], x1 = 0.3025	–	–	–	1.4929	1.4901	1.4873	–	–	–	–
[2], x1 = 0.3987	–	–	–	1.4962	1.4935	1.4906	–	–	–	–
[2], x1 = 0.5074	–	–	–	1.4996	1.4974	1.4952	–	–	–	–
[2], x1 = 0.594	–	–	–	1.5031	1.5006	1.498	–	–	–	–
[2], x1 = 0.6956	–	–	–	1.5069	1.5043	1.5017	–	–	–	–
[2], x1 = 0.7988	–	–	–	1.5105	1.5075	1.5046	–	–	–	–
[2], x1 = 0.8933	–	–	–	1.5124	1.5096	1.5069	–	–	–	–
[2], x1 = 1	–	–	–	1.5148	1.5124	1.5092	–	–	–	–

COc1ccccc1 [anisole] + ClC(Cl)=C(Cl)Cl
x1 = 1
Settings	mass density, 298.15 K [kg/m3]	mass density, 303.15 K [kg/m3]	mass density, 308.15 K [kg/m3]	refractive index, 298.15 K	refractive index, 303.15 K	refractive index, 308.15 K	speed of sound, 298.15 K [m/s]	viscosity, 298.15 K [mPa·s]	viscosity, 303.15 K [mPa·s]	viscosity, 308.15 K [mPa·s]
[1]	988.9	984.1	979.4	–	–	–	1410	0.992	0.919	0.853
[2]	–	–	–	1.5148	1.5124	1.5092	–	–	–	–

COc1ccccc1 [anisole] + ClC(Cl)C(Cl)Cl
x1 = 1
Settings	mass density, 298.15 K [kg/m3]	mass density, 303.15 K [kg/m3]	mass density, 308.15 K [kg/m3]	refractive index, 298.15 K	refractive index, 303.15 K	refractive index, 308.15 K	speed of sound, 298.15 K [m/s]	viscosity, 298.15 K [mPa·s]	viscosity, 303.15 K [mPa·s]	viscosity, 308.15 K [mPa·s]
[1]	988.9	984.1	979.4	–	–	–	1410	0.992	0.919	0.853
[2]	–	–	–	1.5148	1.5124	1.5092	–	–	–	–

COc1ccccc1 [anisole] + OCCCl
x1 = 1
Settings	mass density, 298.15 K [kg/m3]	mass density, 303.15 K [kg/m3]	mass density, 308.15 K [kg/m3]	refractive index, 298.15 K	refractive index, 303.15 K	refractive index, 308.15 K	speed of sound, 298.15 K [m/s]	viscosity, 298.15 K [mPa·s]	viscosity, 303.15 K [mPa·s]	viscosity, 308.15 K [mPa·s]
[1]	988.9	984.1	979.4	–	–	–	1410	0.992	0.919	0.853
[2]	–	–	–	1.5148	1.5124	1.5092	–	–	–	–

CCOC(=O)C(=O)OCC [diethyl ethanedioate] + COc1ccccc1
Settings	mass density, 298.15 K [kg/m3]	mass density, 303.15 K [kg/m3]	mass density, 308.15 K [kg/m3]	refractive index, 298.15 K	refractive index, 303.15 K	refractive index, 308.15 K	speed of sound, 298.15 K [m/s]	viscosity, 298.15 K [mPa·s]	viscosity, 303.15 K [mPa·s]	viscosity, 308.15 K [mPa·s]
[1], x2 = 0	1072.3	1066.6	1060.7	–	–	–	1267	1.844	1.659	1.508
[1], x2 = 0.1017	1065.8	1060.1	1054.3	–	–	–	1280	1.732	1.578	1.424
[1], x2 = 0.1976	1059.5	1053.8	1048.1	–	–	–	1293	1.64	1.497	1.354
[1], x2 = 0.2978	1052.6	1047.1	1041.4	–	–	–	1307	1.55	1.416	1.282
[1], x2 = 0.3621	1047.7	1042.3	1036.7	–	–	–	1316	1.495	1.367	1.239
[1], x2 = 0.4971	1037.4	1031.9	1026.5	–	–	–	1334	1.38	1.265	1.149
[1], x2 = 0.5975	1029.1	1023.8	1018.5	–	–	–	1348	1.301	1.195	1.089
[1], x2 = 0.6977	1020.1	1014.9	1009.7	–	–	–	1362	1.223	1.126	1.03
[1], x2 = 0.8016	1010.1	1005.3	1000	–	–	–	1377	1.14	1.054	0.968
[1], x2 = 0.9007	999.9	995.4	990.2	–	–	–	1393	1.061	0.985	0.91
[2], x2 = 0	–	–	–	1.4084	1.4061	1.4039	–	–	–	–
[2], x2 = 0.1017	–	–	–	1.4171	1.4148	1.4124	–	–	–	–
[2], x2 = 0.1976	–	–	–	1.4257	1.4232	1.4207	–	–	–	–
[2], x2 = 0.2978	–	–	–	1.435	1.4325	1.43	–	–	–	–
[2], x2 = 0.3621	–	–	–	1.4412	1.4388	1.4362	–	–	–	–
[2], x2 = 0.4971	–	–	–	1.4551	1.4525	1.4499	–	–	–	–
[2], x2 = 0.5975	–	–	–	1.466	1.4634	1.4607	–	–	–	–
[2], x2 = 0.6977	–	–	–	1.4773	1.4746	1.4718	–	–	–	–
[2], x2 = 0.8016	–	–	–	1.4896	1.4868	1.484	–	–	–	–
[2], x2 = 0.9007	–	–	–	1.5021	1.4991	1.4962	–	–	–	–

C[S+](C)[O-] [dimethyl sulfoxide] + COc1ccccc1
x2 = 0
Settings	mass density, 298.15 K [kg/m3]	mass density, 303.15 K [kg/m3]	mass density, 308.15 K [kg/m3]	refractive index, 298.15 K	refractive index, 303.15 K	refractive index, 308.15 K	speed of sound, 298.15 K [m/s]	viscosity, 298.15 K [mPa·s]	viscosity, 303.15 K [mPa·s]	viscosity, 308.15 K [mPa·s]
[1]	1095.4	1090.8	1086.2	–	–	–	1493	1.984	1.801	1.651
[2]	–	–	–	1.4768	1.4594	1.4547	–	–	–	–

CN(C)C=O [dimethylformamide] + COc1ccccc1
x2 = 0
Settings	mass density, 298.15 K [kg/m3]	mass density, 303.15 K [kg/m3]	mass density, 308.15 K [kg/m3]	refractive index, 298.15 K	refractive index, 303.15 K	refractive index, 308.15 K	speed of sound, 298.15 K [m/s]	viscosity, 298.15 K [mPa·s]	viscosity, 303.15 K [mPa·s]	viscosity, 308.15 K [mPa·s]
[1]	943.9	939.5	935	–	–	–	1462	0.801	0.754	0.711
[2]	–	–	–	1.4288	1.4264	1.4238	–	–	–	–

ClC(Cl)=C(Cl)Cl [tetrachloroethene] + COc1ccccc1
Settings	mass density, 298.15 K [kg/m3]	mass density, 303.15 K [kg/m3]	mass density, 308.15 K [kg/m3]	refractive index, 298.15 K	refractive index, 303.15 K	refractive index, 308.15 K	speed of sound, 298.15 K [m/s]	viscosity, 298.15 K [mPa·s]	viscosity, 303.15 K [mPa·s]	viscosity, 308.15 K [mPa·s]
[1], x2 = 0	1614.7	1606.9	1599	–	–	–	1038	0.861	0.817	0.782
[1], x2 = 0.0979	1548.6	1540.9	1533.6	–	–	–	1065	0.859	0.818	0.776
[1], x2 = 0.1962	1483.4	1476.1	1469	–	–	–	1094	0.854	0.813	0.77
[1], x2 = 0.3035	1413.9	1407	1400.4	–	–	–	1127	0.854	0.811	0.767
[1], x2 = 0.4024	1350.9	1343.5	1337.9	–	–	–	1159	0.861	0.815	0.77
[1], x2 = 0.5044	1286.9	1280.5	1274.6	–	–	–	1195	0.874	0.825	0.776
[1], x2 = 0.6045	1225.3	1219.3	1213.5	–	–	–	1232	0.892	0.839	0.787
[1], x2 = 0.7033	1165.1	1159.6	1154.1	–	–	–	1271	0.909	0.855	0.799
[1], x2 = 0.8036	1105	1099.6	1094.5	–	–	–	1314	0.935	0.877	0.817
[1], x2 = 0.8974	1049.2	1044.8	1039.2	–	–	–	1359	0.961	0.898	0.835
[2], x2 = 0	–	–	–	1.5036	1.501	1.498	–	–	–	–
[2], x2 = 0.0979	–	–	–	1.5044	1.5015	1.4986	–	–	–	–
[2], x2 = 0.1962	–	–	–	1.5053	1.5023	1.4993	–	–	–	–
[2], x2 = 0.3035	–	–	–	1.5065	1.5034	1.5004	–	–	–	–
[2], x2 = 0.4024	–	–	–	1.5075	1.5044	1.5014	–	–	–	–
[2], x2 = 0.5044	–	–	–	1.5086	1.5056	1.5026	–	–	–	–
[2], x2 = 0.6045	–	–	–	1.5099	1.5069	1.504	–	–	–	–
[2], x2 = 0.7033	–	–	–	1.5111	1.5083	1.5054	–	–	–	–
[2], x2 = 0.8036	–	–	–	1.5124	1.5096	1.5068	–	–	–	–
[2], x2 = 0.8974	–	–	–	1.5135	1.5101	1.508	–	–	–	–
